Laboratory results published in patent US10633419B2, “Immunomodulators” (BRISTOL-MYERS SQUIBB COMPANY, priority 2014, dated 2020).
pIC50: −log10 of the molar value. Where two headings read alike, the source gives them in different places. Starred links: 1 amine or outer side, 2 acyl side, 3 side chain; linkers in the order of their positions; H or OH if unused. Positions of bridges follow the written chain, without caps; N, C: chain ends. Non-standard residues stand in square brackets, D forms with d. Residues, ends and D or L forms follow the SMILES beside them. ξ: configuration not given here. *: point of attachment. X7 = CCCCCCCCCCCCCCCCNC(=O)[C@H](CC(=O)O)NC(=O)CCC(=O)NCCCOCCOCCOCCCN*; CH3O(CH2CH2O)11CH2CH2CO = COCCOCCOCCOCCOCCOCCOCCOCCOCCOCCOCCOCCC(=O)*; Trp(1-CH2COOH) = N[C@@H](Cc1cn(CC(=O)O)c2ccccc12)C(=O)O; X24 = O=C(C[C@@H](Cc1ccc(O)cc1)C(=O)[*:1])C[*:2]; PEG6 = NCCOCCOCCOCCOCCOCCOCCC(=O)O; Palmitoyl = CCCCCCCCCCCCCCCC(=O)*; Hyp = O=C(O)[C@@H]1C[C@@H](O)CN1; NMeF = CN[C@@H](Cc1ccccc1)C(=O)O; Myristoyl = CCCCCCCCCCCCCC(=O)*; NMeE = CN[C@@H](CCC(=O)O)C(=O)O; NMeNle = CCCC[C@H](NC)C(=O)O; NMeA = CN[C@@H](C)C(=O)O; Pra = C#CC[C@H](N)C(=O)O; Aun = NCCCCCCCCCCC(=O)O; Dab = NCC[C@H](N)C(=O)O; Dap = NC[C@H](N)C(=O)O; ξD = NC(CC(=O)O)C(=O)O; Sar = CNCC(=O)O

Biological target: T1, PD-L1 (Homo sapiens, UniProt Q9NZQ7)
T1 construct: hPDL1(19-239)-TVMV-His; made in house; host or cells: HEK293T
Assay: PD-1/PD-L1 Homogenous Time-Resolved Fluorescence (HTRF) binding assay (PD-1-Ig/PD-L1-His)
Conditions: inhibition of PD-1-Ig binding to PD-L1-TVMV-His, read-out: HTRF IC50
Summary of the method: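 Inhibitors pre-incubated 15 min with PD-L1-His (10 nM final), then PD-1-Ig (20 nM final) added for 15 min in dPBS/0.1% BSA/0.05% Tween-20. Eu-cryptate anti-Ig (1 nM) and APC anti-His (20 nM) added, 30 min equilibration, 665/620 nm HTRF ratio read.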

T1 sequence (Q9NZQ7 with tags, fused parts or gaps): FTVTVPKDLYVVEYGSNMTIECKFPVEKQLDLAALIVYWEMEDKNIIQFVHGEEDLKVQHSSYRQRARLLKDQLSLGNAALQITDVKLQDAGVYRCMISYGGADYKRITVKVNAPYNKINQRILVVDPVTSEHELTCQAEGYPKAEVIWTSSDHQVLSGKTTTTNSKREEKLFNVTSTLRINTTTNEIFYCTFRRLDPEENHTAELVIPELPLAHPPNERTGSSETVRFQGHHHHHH

| SMILES | pIC50 (value given as range class) | pIC50 (value given as number) |
| --- | --- | --- |
| CCCC[C@H]1C(=O)N(C)CC(=O)N[C@@H](CC(=O)O)C(=O)N[C@@H](C(C)C)C(=O)N(C)[C@@H](Cc2ccccc2)C(=O)N[C@@H](Cc2ccc(O)cc2)C(=O)N(C)[C@@H](CCC(=O)O)C(=O)N[C@@H](Cc2c[nH]c3ccccc23)C(=O)N[C@@H](Cc2ccc(O)cc2)C(=O)N[C@@H](CC(C)C)C(=O)N[C@H](C(=O)NCC(=O)NCC(=O)NCC(=O)N[C@@H](CCCCNC(=O)CCOCCOCCOCCOCCOCCOCCOCCOCCOCCOCCOCCOC)C(N)=O)CSCC(=O)N[C@@H](Cc2ccccc2)C(=O)N(C)[C@@H](Cc2ccccc2)C(=O)N1C [Example 3621] ({CH2CO}-F[NMeF][NMeNle][Sar]DV[NMeF]Y[NMeE]WYLCGGGK(CH3O(CH2CH2O)11CH2CH2CO)-NH2; thioether N-13) | 7.00 to 8.00 | – |
| C#CC[C@H](NC(=O)CNC(=O)[C@@H]1CSCC(=O)N[C@@H](Cc2ccc(O)cc2)C(=O)N(C)[C@@H](C)C(=O)N[C@@H](CC(=O)O)C(=O)N2CCC[C@H]2C(=O)N[C@@H](Cc2c[nH]cn2)C(=O)N[C@@H](CCC(N)=O)C(=O)N2C[C@H](O)C[C@H]2C(=O)N[C@@H](Cc2c[nH]c3ccccc23)C(=O)N[C@@H](CO)C(=O)N[C@@H](Cc2c[nH]c3ccccc23)C(=O)N(C)[C@@H](CCCC)C(=O)N(C)[C@@H](CCCC)C(=O)N[C@@H](CCC(=O)O)C(=O)N1)C(=O)NCC(N)=O [INT 1400C] ({CH2CO}-Y[NMeA]DPHQ[Hyp]WSW[NMeNle][NMeNle]ECG[Pra]G-NH2; thioether N-14) | 8.00 to 9.52 | – |
| CCCC[C@H]1C(=O)N(C)[C@@H](CCCC)C(=O)N[C@@H](CC(C)C)C(=O)N[C@H](C(=O)NCCCCCCCCCCC(=O)O)CSCC(=O)N[C@@H](Cc2ccc(O)cc2)C(=O)N(C)[C@@H](C)C(=O)N[C@@H](CC(N)=O)C(=O)N2CCC[C@H]2C(=O)N[C@@H](CO)C(=O)N[C@@H](CCC(N)=O)C(=O)N2C[C@H](O)C[C@H]2C(=O)N[C@@H](Cc2c[nH]c3ccccc23)C(=O)N[C@@H](CO)C(=O)N[C@@H](Cc2cn(CC(=O)O)c3ccccc23)C(=O)N1C [Example 11082] ({CH2CO}-Y[NMeA]NPSQ[Hyp]WS[Trp(1-CH2COOH)][NMeNle][NMeNle]LC[Aun]-OH; thioether N-14) | 7.00 to 8.00 | – |

Further lines, results first:

| pIC50 (value given as range class) | pIC50 (value given as number) | SMILES |
| --- | --- | --- |
| – | 8.39 | CCCC[C@H]1C(=O)N(C)[C@@H](CCCC)C(=O)N[C@@H](CC(C)C)C(=O)N[C@H](C(=O)NCC(=O)N[C@H](CC(=O)O)C(=O)NCCCCCCCCCCC(=O)O)CSCC(=O)N[C@@H](Cc2ccc(O)cc2)C(=O)N(C)[C@@H](C)C(=O)N[C@@H](CC(N)=O)C(=O)N2CCC[C@H]2C(=O)N[C@@H](CN)C(=O)N[C@@H](CC(C)C)C(=O)N2C[C@H](O)C[C@H]2C(=O)N[C@@H](Cc2c[nH]c3ccccc23)C(=O)N[C@@H](CCN)C(=O)N[C@@H](Cc2cn(CC(=O)O)c3ccccc23)C(=O)N1C [Example 11101] ({CH2CO}-Y[NMeA]NP[Dap]L[Hyp]W[Dab][Trp(1-CH2COOH)][NMeNle][NMeNle]LCG[dD][Aun]-OH; thioether N-14) |
| 7.00 to 8.00 | – | CCCCCCCCCCCCCCCCNC(=O)[C@H](CC(=O)O)NC(=O)CCC(=O)NCCCOCCOCCOCCCNC(=O)CNC(=O)[C@@H]1CSCC(=O)N[C@@H](Cc2ccc(O)cc2)C(=O)N(C)[C@@H](C)C(=O)N[C@@H](CC(=O)O)C(=O)N2CCC[C@H]2C(=O)N[C@@H](Cc2cnc[nH]2)C(=O)N[C@@H](CC(C)C)C(=O)N2C[C@H](O)C[C@H]2C(=O)N[C@@H](Cc2c[nH]c3ccccc23)C(=O)N[C@@H](CO)C(=O)N[C@@H](Cc2c[nH]c3ccccc23)C(=O)N(C)[C@@H](CCCC)C(=O)N(C)[C@@H](CCCC)C(=O)N[C@@H](CCCNC(=N)N)C(=O)N1 [Example 11128] ({CH2CO}-Y[NMeA]DPHL[Hyp]WSW[NMeNle][NMeNle]RCG-X7; thioether N-14) |
| 7.00 to 8.00 | – | CCCCCCCCCCCCCC(=O)NCCCC[C@H](NC(=O)C(CC(=O)O)NC(=O)CCOCCOCCOCCOCCOCCOCCNC(=O)CNC(=O)[C@@H]1CSCC(=O)C[C@@H](Cc2ccc(O)cc2)C(=O)N(C)[C@@H](C)C(=O)N[C@@H](CC(=O)O)C(=O)N2CCC[C@H]2C(=O)N[C@@H](Cc2cnc[nH]2)C(=O)N[C@@H](CC(C)C)C(=O)N2C[C@H](O)C[C@H]2C(=O)N[C@@H](Cc2c[nH]c3ccccc23)C(=O)N[C@@H](CO)C(=O)N[C@@H](Cc2c[nH]c3ccccc23)C(=O)N(C)[C@@H](CCCC)C(=O)N(C)[C@@H](CCCC)C(=O)N[C@@H](CCCNC(=N)N)C(=O)N1)C(N)=O (stereo partly shown) [Example 11013] ([NMeA]DPHL[Hyp]WSW[NMeNle][NMeNle]RCG[PEG6][ξD]K(Myristoyl)-NH2; linker N-13 via X24) |
| 5.80 to 7.00 | – | CCCCCCCCCCCCCCCC(=O)NCCCC[C@H](NC(=O)CNC(=O)[C@@H]1CSCC(=O)N[C@@H](Cc2ccc(O)cc2)C(=O)N(C)[C@@H](C)C(=O)N[C@@H](CC(N)=O)C(=O)N2CCC[C@H]2C(=O)N[C@@H](CCN)C(=O)N[C@@H](CC(C)C)C(=O)N2C[C@H](O)C[C@H]2C(=O)N[C@@H](Cc2c[nH]c3ccccc23)C(=O)N[C@@H](CO)C(=O)N[C@@H](Cc2c[nH]c3ccccc23)C(=O)N(C)[C@@H](CCCC)C(=O)N(C)[C@@H](CCCC)C(=O)N[C@@H](CCCNC(=N)N)C(=O)N1)C(N)=O [Example 11020] ({CH2CO}-Y[NMeA]NP[Dab]L[Hyp]WSW[NMeNle][NMeNle]RCGK(Palmitoyl)-NH2; thioether N-14) |
